Results on eleven compounds are retold here after ChEMBL document CHEMBL1144640, “Novel pyrazole derivatives as potent inhibitors of type II topoisomerases. Part 1: synthesis and preliminary SAR analysis” (Bioorg Med Chem Lett, 2007).

Broadly, the IC50 is the concentration at which inhibition is half-maximal. Higher therefore signals a need for much substance. In general, MIC refers to the least concentration at which growth counts as inhibited. High values mean a need for much substance, low ones inhibition by little substance.

In brackets after ≈: the same amount, converted by molar mass. A value given as a limit tells only on which side of the number the result lay.

The nature of experiment [1]: Inhibition of bacterial DNA gyrase. Set-up: species or system Bacteria.
The nature of experiment [2]: Inhibition of bacterial topoisomerase 4. Set-up: species or system Bacteria.
In a further experiment the test system is Escherichia coli. Briefly: Antibacterial activity against Escherichia coli KL16. It is filed as functional.
The test system of another experiment is Staphylococcus aureus. Briefly: Antibacterial activity against Staphylococcus aureus ATCC 13709. In kind it is functional.
For a further experiment, the system named is Streptococcus pneumoniae. Briefly: Antibacterial activity against Streptococcus pneumonia ATCC 49619. It is filed as functional.

On to `COc1ccc2nccc(-n3cc4c(n3)CCC(NC(=O)c3ccc5c(c3)NC(=O)CS5)C4)c2n1` (stereo not given), for which the IC50 in experiment [1] came out at 0.06 µg/mL (≈ 0.123 µM); in experiment [2], 0.25 µg/mL (≈ 0.514 µM). In addition, the figures for the minimum inhibitory concentration (MIC) against Escherichia coli, in the experiment with Staphylococcus aureus and in the experiment with Streptococcus pneumoniae were 128 µg/mL (≈ 263 µM), 0.125 µg/mL (≈ 0.257 µM) and 4 µg/mL (≈ 8.22 µM), respectively.
With `COc1ccc2nccc(-n3ncc4c3CCN(Cc3ccc5c(c3)OCCO5)C4)c2c1`, the half-maximal inhibitory concentration (IC50) in experiment [1] is greater than 8 µg/mL. Besides, the minimum inhibitory concentration (MIC) in the experiment with Escherichia coli, against Staphylococcus aureus and against Streptococcus pneumoniae was greater than 128 µg/mL each time.
Turning to `COc1ccc2nccc(-n3cc4c(n3)CCC(NCc3ccc5c(c3)NC(=O)CS5)C4)c2c1` (stereo not given), the values for the half-maximal inhibitory concentration (IC50) in experiment [1] and in experiment [2] were 0.25 µg/mL (≈ 0.53 µM) and 0.03 µg/mL (≈ 0.0636 µM), respectively. The minimal inhibitory concentration (MIC) in the experiment on Escherichia coli was 2 µg/mL (≈ 4.24 µM); against Staphylococcus aureus, 0.25 µg/mL (≈ 0.53 µM); against Streptococcus pneumoniae it was 0.5 µg/mL (≈ 1.06 µM).
Consider `COc1ccc2nccc(-n3ncc4c3CCC(NCc3ccc5c(c3)OCCO5)C4)c2c1` (stereo not given), for which the IC50 in experiment [1] was greater than 8 µg/mL. The results for the MIC with Escherichia coli, against Staphylococcus aureus and in the experiment with Streptococcus pneumoniae were greater than 128 µg/mL, 16 µg/mL (≈ 36.2 µM) and 32 µg/mL (≈ 72.3 µM), respectively.
With `COc1ccc2nccc(-n3cc4c(n3)CCC(NCc3ccc5c(c3)NC(=O)CS5)C4)c2n1` (stereo not given), the half-maximal inhibitory concentration (IC50) came to 0.25 µg/mL (≈ 0.529 µM) in experiment [1] and 0.016 µg/mL (≈ 0.0339 µM) in experiment [2]. Also, the MIC in the experiment on Escherichia coli was found to be 1 µg/mL (≈ 2.12 µM); against Staphylococcus aureus, 0.25 µg/mL (≈ 0.529 µM); with Streptococcus pneumoniae, 2 µg/mL (≈ 4.23 µM).
With `COc1ccc2nccc(-n3cc4c(n3)CCN(Cc3ccc5c(c3)OCCO5)C4)c2c1`, in experiment [1], the IC50 is greater than 8 µg/mL. In addition, the MIC in the experiment with Escherichia coli, in the experiment with Staphylococcus aureus and in the experiment with Streptococcus pneumoniae was greater than 128 µg/mL throughout.
Regarding `COc1ccc2nccc(-n3cc4c(n3)CCC(NC(=O)c3ccc5c(c3)NC(=O)CS5)C4)c2c1` (stereo not given), the half-inhibitory concentration (IC50) in experiment [1] was determined as 1 µg/mL (≈ 2.06 µM); in experiment [2] it was 0.125 µg/mL (≈ 0.257 µM). The MIC in the experiment on Escherichia coli was 4 µg/mL (≈ 8.24 µM); with Staphylococcus aureus it was 4 µg/mL (≈ 8.24 µM); with Streptococcus pneumoniae it was 2 µg/mL (≈ 4.12 µM).
For `COc1ccc2nccc(-n3cc4c(n3)CCN(C(=O)c3ccc5c(c3)NC(=O)CS5)CC4)c2n1`, in experiment [1], the IC50 was found to be 0.25 µg/mL (≈ 0.514 µM). Moreover, the MIC in the experiment on Escherichia coli worked out at 2 µg/mL (≈ 4.11 µM); against Staphylococcus aureus it was 1 µg/mL (≈ 2.06 µM); in the experiment on Streptococcus pneumoniae it was 2 µg/mL (≈ 4.11 µM).
In the case of `COc1ccc2nccc(-n3cc4c(n3)CCC(NCc3ccc5c(c3)OCCO5)C4)c2c1` (stereo not given), the values for the half-inhibitory concentration (IC50) in experiment [1] and in experiment [2] were 2 µg/mL (≈ 4.52 µM) and 0.06 µg/mL (≈ 0.136 µM), respectively. The MIC amounted to 64 µg/mL (≈ 145 µM) in the experiment with Escherichia coli, 0.5 µg/mL (≈ 1.13 µM) against Staphylococcus aureus and 0.5 µg/mL (≈ 1.13 µM) against Streptococcus pneumoniae.
`COc1ccc2nccc(-n3ncc4c3CCC(NCc3ccc5c(c3)NC(=O)CS5)C4)c2c1` (stereo not given): the half-inhibitory concentration (IC50) in experiment [1] was determined as 2 µg/mL (≈ 4.24 µM). For the same compound, the minimal inhibitory concentration (MIC) with Escherichia coli, with Staphylococcus aureus and with Streptococcus pneumoniae was greater than 128 µg/mL throughout.
Regarding `COc1ccc2nccc(-n3cc4c(n3)CC(NC(=O)c3ccc5c(c3)NC(=O)CS5)CC4)c2c1` (stereo not given), the concentration for half-maximal inhibition (IC50) in experiment [1] was greater than 8 µg/mL; in experiment [2], 0.5 µg/mL (≈ 1.03 µM). Also, the results for the MIC in the experiment with Escherichia coli, against Staphylococcus aureus and with Streptococcus pneumoniae were 8 µg/mL (≈ 16.5 µM), 8 µg/mL (≈ 16.5 µM) and 4 µg/mL (≈ 8.24 µM), respectively.
